The subject of data set [1] is adipose stromal cells. Kind of data set: Chondrogenic differentiation of stem cells in differentiation medium supplemented with ROCK inhibitor. It counts as cell-based, human. Conditions: for Induction of stem cell differentiation: differentiation medium supplemented with ROCK inhibitor; for Cell differentiation noticed / started, time after initial treatment with ROCK inhibitor: MesenCult-ACF Chondrogenic Differentiation medium supplemented with ROCK inhibitor, dose dependent. The procedure: (§1) Chondrocyte Cell Sheet: ASC were cultured with RoosterNourish™-MSC-XF, until the cells reached confluence. From that day, ASC were cultured with MesenCult™-ACF Chondrogenic Differentiation Kit (Stem Cell, Vancouver, Canada). The culture media was replaced every 2 days, up to X days from the initial seeding day depending on the technique used to engineer the cell sheet.
(§2) One of two techniques was used to complete the engineering process: 1) To stop centrifuge tension, the edges of the cell sheets were cut, and the cell sheet was left resting in almost absence of culture media (MesenCult™-ACF Chondrogenic Differentiation) to let the cell sheets' edges attached to the cell culture surface, for 20 minutes. The differentiation culture media (MesenCult™-ACF Chondrogenic Differentiation) was added to the cell culture dish and the chondrocyte cell sheet was engineered up to 21 days after the initial day of differentiation. 2) ROCK inhibitor Y-27632 at 10 μM or ROCK inhibitor Y-33075 at 1 μM were used from the first day of differentiation.

Data set [2] deals with adipose stromal cells. Kind of data set: Toxicity of ROCK inhibitor for the cells during differentiation. It counts as cell-based. Conditions: dose response.
For data set [3], the system named is adipose stromal cells. Briefly: Engineering of chondrocyte cell sheets with ROCK inhibitor (detachment, time of formation). It counts as cell-based, human. The settings on record: for Success in engineering the chondrocyte multilayer cell sheets: ROCK 1 and 2 inhibitors; for Detachment of the cell sheets / Time in which cell sheets were formed: Y-27632 at 10 μM or Y-33075 at 1 μM from the first day of differentiation; for Reduction of the time of differentiation: Y-27632 at 10 μM or Y-33075 at 1 μM, versus 21 days with edge cutting. The procedure:
as §1, §2
Undifferentiated ASCCS were engineered in 10 days, using a chemically defined culture media. Differentiated ASCCS into Chondrocyte (treated with ROCK inhibitor from 1 to 20 μM), […] and osteoblast were also engineered using chemically defined and animal free culture media, in 14, 21 and 14 days, respectively. The transmittance of the ASCCS were measured over time from the time the cells reached confluence until the cell sheets were harvested.

The structures appear in SMILES notation. “Also recorded” adds a separate entry of the source.

For the compound `CC(C)NC(=O)COc1cccc(-c2nc(Nc3ccc4[nH]ncc4c3)c3ccccc3n2)c1` [Belumosudil, 2-[3-[4-(1H-Indazol-5-ylamino)quinazolin-2-yl]phenoxy]-N-propan-2-ylacetamide], the “Induction of stem cell differentiation” value with adipose stromal cells [1] is recorded as “failed to induce stem cell differentiation; also recorded: does not induce cell differentiation”. Also, the “Toxicity for the cells” value in the data set on adipose stromal cells [2] is “toxic for the cells in a dose response, inducing cell death”.

For the compound `Cc1cncc2cccc(S(=O)(=O)N3CCCNC[C@@H]3C)c12` [H-1152, (S)-4-methyl-5-((2-methyl-1,4-diazepan-1-yl)sulfonyl)isoquinoline], in the data set with adipose stromal cells [1], the “Cell differentiation noticed / started, time after initial treatment with ROCK inhibitor” value is reported as 2 days; the “Induction of stem cell differentiation” value was “induced the cell differentiation but it is less efficient than Y-27632 and Y-33075”.

On to `C[C@@H](N)c1ccc(C(=O)Nc2ccnc3[nH]ccc23)cc1` [Y-33075, (R)-4-(1-aminoethyl)-N-(1H-pyrrolo[2,3-b]pyridin-4-yl)benzamide], for which the “Cell differentiation noticed / started, time after initial treatment with ROCK inhibitor” value in the data set with adipose stromal cells [1] is 1 days. Also, in the data set on adipose stromal cells [3], the “Success in engineering the chondrocyte multilayer cell sheets” value was “used with success”, the “Detachment of the cell sheets” value is listed as “didn't detach”, the “Time in which cell sheets were formed” value amounted to 2 weeks and the “Reduction of the time of differentiation” value came to 33%.

On to `C[C@@H](N)[C@H]1CC[C@H](C(=O)Nc2ccncc2)CC1` [Y-27632, (1R,4r)-4-((R)-1-aminoethyl)-N-(pyridin-4-yl)cyclohexane-1-carboxamide], for which the “Cell differentiation noticed / started, time after initial treatment with ROCK inhibitor” value in the data set with adipose stromal cells [1] worked out at 2 days. In addition, in the data set with adipose stromal cells [3], the “Success in engineering the chondrocyte multilayer cell sheets” value is “used with success”, the “Detachment of the cell sheets” value is on record as “didn't detach”, the “Time in which cell sheets were formed” value was found to be 2 weeks and the “Reduction of the time of differentiation” value amounted to 33%.
